From US10556914B2, “Substituted isoxazolopyridazinones and isothiazolopyridazinones and methods of use” (AbbVie Inc., priority 2015, dated 2020) come the findings set out here.

Some results are limits rather than exact numbers.

What is called EC50 is the concentration giving half of the maximal effect.

Chain of GABA-B receptor (Q9Z0U4 17-960): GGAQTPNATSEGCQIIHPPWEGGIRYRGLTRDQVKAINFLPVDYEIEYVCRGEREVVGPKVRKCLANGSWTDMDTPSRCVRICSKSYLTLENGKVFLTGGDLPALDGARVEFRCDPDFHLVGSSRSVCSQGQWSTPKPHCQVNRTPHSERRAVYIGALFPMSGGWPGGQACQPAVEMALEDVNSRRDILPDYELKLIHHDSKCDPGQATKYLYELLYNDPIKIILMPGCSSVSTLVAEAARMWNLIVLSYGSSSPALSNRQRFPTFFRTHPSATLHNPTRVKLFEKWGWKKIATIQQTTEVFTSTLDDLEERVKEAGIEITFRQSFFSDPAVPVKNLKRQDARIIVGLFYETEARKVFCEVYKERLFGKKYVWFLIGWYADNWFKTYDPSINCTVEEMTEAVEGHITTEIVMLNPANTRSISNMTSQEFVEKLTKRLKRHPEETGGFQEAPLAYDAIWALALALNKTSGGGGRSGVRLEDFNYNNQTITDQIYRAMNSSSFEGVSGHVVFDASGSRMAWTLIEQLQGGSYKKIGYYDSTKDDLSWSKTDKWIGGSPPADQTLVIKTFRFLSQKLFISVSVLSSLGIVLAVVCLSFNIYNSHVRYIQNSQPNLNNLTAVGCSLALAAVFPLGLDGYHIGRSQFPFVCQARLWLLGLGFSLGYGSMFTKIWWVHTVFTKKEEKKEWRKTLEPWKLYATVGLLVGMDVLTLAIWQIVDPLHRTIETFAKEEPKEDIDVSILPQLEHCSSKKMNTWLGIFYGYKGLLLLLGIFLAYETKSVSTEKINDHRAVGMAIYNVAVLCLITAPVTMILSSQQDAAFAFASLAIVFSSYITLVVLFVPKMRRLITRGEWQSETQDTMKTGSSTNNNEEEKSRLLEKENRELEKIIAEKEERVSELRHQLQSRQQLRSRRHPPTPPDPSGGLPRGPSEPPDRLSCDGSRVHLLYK
Chain of GABA-B receptor (O88871 41-940): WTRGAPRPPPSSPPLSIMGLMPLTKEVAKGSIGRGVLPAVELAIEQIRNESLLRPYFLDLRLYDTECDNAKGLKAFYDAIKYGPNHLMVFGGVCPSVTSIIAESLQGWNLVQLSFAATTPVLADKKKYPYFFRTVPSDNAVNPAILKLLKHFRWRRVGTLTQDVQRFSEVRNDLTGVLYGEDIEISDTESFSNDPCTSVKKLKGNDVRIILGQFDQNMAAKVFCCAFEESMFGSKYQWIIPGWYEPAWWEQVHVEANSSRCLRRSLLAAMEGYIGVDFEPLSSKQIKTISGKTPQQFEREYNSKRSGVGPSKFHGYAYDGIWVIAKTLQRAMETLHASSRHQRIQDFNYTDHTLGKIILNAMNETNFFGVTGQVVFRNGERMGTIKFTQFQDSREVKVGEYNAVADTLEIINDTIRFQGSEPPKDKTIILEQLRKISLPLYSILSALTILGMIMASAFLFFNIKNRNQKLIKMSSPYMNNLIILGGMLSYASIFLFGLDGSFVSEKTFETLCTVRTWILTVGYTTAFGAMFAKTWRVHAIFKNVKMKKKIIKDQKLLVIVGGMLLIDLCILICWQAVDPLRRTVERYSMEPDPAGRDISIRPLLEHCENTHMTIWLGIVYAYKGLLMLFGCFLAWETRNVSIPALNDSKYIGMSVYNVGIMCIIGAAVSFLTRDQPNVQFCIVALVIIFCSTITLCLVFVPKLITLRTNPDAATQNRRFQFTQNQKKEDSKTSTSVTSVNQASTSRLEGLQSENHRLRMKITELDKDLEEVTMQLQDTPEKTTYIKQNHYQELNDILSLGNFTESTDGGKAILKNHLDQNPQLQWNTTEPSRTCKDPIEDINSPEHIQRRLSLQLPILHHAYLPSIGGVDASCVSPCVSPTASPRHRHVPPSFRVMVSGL

The assay addresses GABA-B receptor (Rattus norvegicus (Rat), UniProt O88871+Q9Z0U4). The assay can be described thus: [35S]GTPgS Binding Assay (rat brain cortex membranes, native receptor). The assay is classed as biochemical. The conditions noted are these: rat cortical membranes; in the presence of 1 μM GABA (EC25); basal binding 0%, maximal binding (1 mM GABA) 100%.
Turning to `Cc1noc2c(-c3cccc(C(N)=O)c3)nn(C(C)c3ccc(Cl)cc3)c(=O)c12` (centres unmarked) [Example 106, 3-{5-[1-(4-chlorophenyl)ethyl]-3-methyl-4-oxo-4,5-dihydro[1,2]oxazolo[4,5-d]pyridazin-7-yl}benzamide], the EC50 is 847 nM.
`CC(=O)Nc1ccc(C)c(-c2nn(Cc3ccc(C(F)(F)F)cc3)c(=O)c3c(C)noc23)c1` [Example 107, N-(4-methyl-3-{3-methyl-4-oxo-5-[4-(trifluoromethyl)benzyl]-4,5-dihydro[1,2]oxazolo[4,5-d]pyridazin-7-yl}phenyl)acetamide]: the EC50 came to 1470 nM.
In the case of `Cc1noc2c(-c3cccnc3)nn(C(C)c3ccc(Cl)cc3)c(=O)c12` (centres unmarked) [Example 109, 5-[1-(4-chlorophenyl)ethyl]-3-methyl-7-(pyridin-3-yl)[1,2]oxazolo[4,5-d]pyridazin-4(5H)-one], the EC50 turned out to be 1210 nM.
The figure for `CNC(=O)c1ccc(OC)c(-c2nn([C@H](C)c3ccc(Cl)cc3)c(=O)c3c(C)noc23)c1` [Example 111, 3-{5-[(1R)-1-(4-chlorophenyl)ethyl]-3-methyl-4-oxo-4,5-dihydro[1,2]oxazolo[4,5-d]pyridazin-7-yl}-4-methoxy-N-methylbenzamide] is greater than 10000 nM.
For `CC(=O)Nc1c(F)ccc(-c2nn([C@H](C)c3ccc(C(F)(F)F)cc3)c(=O)c3c(C)noc23)c1C` [Example 112, N-[6-fluoro-2-methyl-3-(3-methyl-4-oxo-5-{(1R)-1-[4-(trifluoromethyl)-phenyl]ethyl}-4,5-dihydro[1,2]oxazolo[4,5-d]pyridazin-7-yl)phenyl]acetamide], the EC50 amounted to 3630 nM.
As to `Cc1noc2c(-c3cncnc3)nn(C(C)c3ccc(Cl)cc3)c(=O)c12` (centres unmarked) [Example 113, 5-[1-(4-chlorophenyl)ethyl]-3-methyl-7-(pyrimidin-5-yl)[1,2]oxazolo[4,5-d]pyridazin-4(5H)-one], the EC50 amounted to 3840 nM.
With `Cc1nn(C(C)c2ccc(Cl)cc2)c(=O)c2c(C)noc12` (centres unmarked) [Example 114, 5-[1-(4-chlorophenyl)ethyl]-3,7-dimethyl[1,2]oxazolo[4,5-d]pyridazin-4(5H)-one], the EC50 worked out at 3800 nM.
Turning to `CCn1nccc1-c1nn(C(C)c2ccc(Cl)cc2)c(=O)c2c(C)noc12` (centres unmarked) [Example 115, 5-[1-(4-chlorophenyl)ethyl]-7-(1-ethyl-1H-pyrazol-5-yl)-3-methyl[1,2]oxazolo[4,5-d]pyridazin-4(5H)-one], the EC50 turned out to be 4120 nM.
The figure for `Cc1noc2c(-c3cnc4cc[nH]c4c3)nn(C(C)c3ccc(Cl)cc3)c(=O)c12` (centres unmarked) [Example 116, 5-[1-(4-chlorophenyl)ethyl]-3-methyl-7-(1H-pyrrolo[3,2-b]pyridin-6-yl)[1,2]oxazolo[4,5-d]pyridazin-4(5H)-one] is 855 nM; for `COc1ccc(NC(C)=O)cc1-c1nn([C@@H](C)c2ccc(Cl)cc2)c(=O)c2c(C)noc12` [Example 117, N-(3-{5-[(1S)-1-(4-chlorophenyl)ethyl]-3-methyl-4-oxo-4,5-dihydro[1,2]oxazolo[4,5-d]pyridazin-7-yl}-4-methoxyphenyl)acetamide] it is 43 nM.
The figure for `COc1ccccc1-c1nn(Cc2ccc(C(F)(F)F)cc2)c(=O)c2c(C)noc12` [Example 118, 7-(2-methoxyphenyl)-3-methyl-5-[4-(trifluoromethyl)benzyl][1,2]oxazolo[4,5-d]pyridazin-4(5H)-one] is 2930 nM; for `CNC(=O)c1ccc(OC)c(-c2nn(C(C)c3ccc(Cl)cc3)c(=O)c3c(C)noc23)c1` (centres unmarked) [Example 119, 3-{5-[1-(4-chlorophenyl)ethyl]-3-methyl-4-oxo-4,5-dihydro[1,2]oxazolo[4,5-d]pyridazin-7-yl}-4-methoxy-N-methylbenzamide] it is 56 nM.
On to `Cc1noc2c(-c3cccnc3)nn(Cc3ccc(Cl)cc3)c(=O)c12` [Example 120, 5-(4-chlorobenzyl)-3-methyl-7-(pyridin-3-yl)[1,2]oxazolo[4,5-d]pyridazin-4(5H)-one], for which the EC50 stood at 6820 nM.
Take `Cc1noc2c(-c3ccccc3)nn(Cc3ccc(Cl)cc3)c(=O)c12` [Example 122, 5-(4-chlorobenzyl)-3-methyl-7-phenyl[1,2]oxazolo[4,5-d]pyridazin-4(5H)-one]: the EC50 was 3800 nM.
Turning to `COc1ccc(OC)c(-c2nn([C@H](C)c3ccc(C(F)(F)F)cc3)c(=O)c3c(C)noc23)c1` [Example 125, 7-(2,5-dimethoxyphenyl)-3-methyl-5-{(1R)-1-[4-(trifluoromethyl)phenyl]ethyl}[1,2]oxazolo[4,5-d]pyridazin-4(5H)-one], the EC50 was 582 nM.
Turning to `Cc1noc2c(-c3cccc(N)c3)nn(C(C)c3ccc(Cl)cc3)c(=O)c12` (centres unmarked) [Example 126, 7-(3-aminophenyl)-5-[1-(4-chlorophenyl)ethyl]-3-methyl[1,2]oxazolo[4,5-d]pyridazin-4(5H)-one], the EC50 worked out at 501 nM.
As to `COc1ccc(-c2nn(Cc3ccc(C(F)(F)F)cc3)c(=O)c3c(C)noc23)c(OC)c1` [Example 127, 7-(2,4-dimethoxyphenyl)-3-methyl-5-[4-(trifluoromethyl)benzyl][1,2]oxazolo[4,5-d]pyridazin-4(5H)-one], the EC50 came to 1560 nM.
In the case of `COc1ccc(OC)c(-c2nn([C@H](C)c3ccc(Cl)cc3)c(=O)c3c(C4CC4)noc23)c1` [Example 128, 5-[(1R)-1-(4-chlorophenyl)ethyl]-3-cyclopropyl-7-(2,5-dimethoxyphenyl)-[1,2]oxazolo[4,5-d]pyridazin-4(5H)-one], the EC50 is greater than 10000 nM.
Consider `CCc1noc2c(-c3cccc(NC(C)=O)c3)nn(Cc3ccc(Cl)cc3)c(=O)c12` [Example 129, N-{3-[5-(4-chlorobenzyl)-3-ethyl-4-oxo-4,5-dihydro[1,2]oxazolo[4,5-d]pyridazin-7-yl]phenyl}acetamide], for which the EC50 amounted to 2110 nM.
The figure for `CCNC(=O)c1ccc(OC)c(-c2nn(C(C)c3ccc(Cl)cc3)c(=O)c3c(C)noc23)c1` (centres unmarked) [Example 131] is 453 nM.
